Target: T1, integrin VLA-4, expressed on the Jurkat J6 (human lymphoblast cell line) cell membrane with VCAM-1 (Homo sapiens, UniProt P05556+P13612)
T1 construct: integrin VLA-4, expressed on the Jurkat J6 (human lymphoblast cell line) cell membrane; endogenous in cells; host or cells: Jurkat J6 cells (integrin). zzVCAM-1 was made in house in Drosophila melanogaster S2 cells
Assay: Jurkat J6/VCAM-1 adhesion assay
Assay type: cell-based
Details: Jurkat J6 cell adhesion to VCAM-1, 1 mM MnCl2; mean of n experiments
Method: (1) Jurkat J6/VCAM-1 Adhesion Assay
This assay was used to investigate the interaction of the integrin VLA-4, expressed on the Jurkat J6 (human lymphoblast cell line) cell membrane with VCAM-1. Polystyrene 96-well microtitre plates were coated with human immunoglobulin G (IgG; Sigma Chemicals, UK, Product No. 14506) at a concentration of 0.05 mg ml^−1 in bicarbonate buffer (36 mM NaHCO3 and 22 mM Na2CO3, prepared in Dulbecco's phosphate buffered saline at pH 9.8 (PBS); Sigma Chemicals, UK, Product No. 14190-094) for 2 hours at 37° C. This solution was then aspirated and the plates were washed twice with PBS.
VCAM-1 was prepared by cloning its constituent seven domains into a Drosophila expression system with a zz (Protein A) tag. This zzVCAM-1 was then expressed from Drosophila melanogaster S2 cell culture, induced with copper. Protease inhibitors were added and the culture supernatant was clarified either by filtration through a 0.2 μm filter or by centrifugation. The zzVCAM-1 was then purified from this clarified medium using an IgG agarose column, equilibrated with either 20 mM sodium phosphate pH 7.2 alone or in the presence of 0.5M sodium chloride. Elution of zzVCAM-1 from the column was mediated using 3M ammonium thiocyanate, which was subsequently removed using a G25 desalting column, equilibrated with 20 mM sodium phosphate, pH 7.2. The purified zzVCAM-1 was then concentrated to a small volume (Amicon stirred cell concentrators) until a concentration of 62.5 ng ml^−1 was obtained, calculated using the extinction coefficient value.
This solution of zzVCAM-1 was then incubated overnight at 4° C. in the IgG coated microtitre plates with 3% bovine serum albumin (BSA) in PBS, followed by aspiration and two further washes with PBS. A concentration of the Jurkat J6 cells (6×10^6 cels ml^−1), grown in cell media RPMI 1640 (HyClone Ltd, Product No. B-9106-L) supplemented with 10% heat inactivated fetal calf serum (FCS; Gibco BRL, Product No. 10099-075) and 2 mM L-glutamine, were labelled with 10 μM of the fluorescent dye, 2′, 7′-bis(2-carboxyethyl)-5-(e6)-carboxyfluorescein acetoxymethyl ester (BCECF-AM; Molecular Probes Inc, Product No. B-1150) at 37° C. for 10 minutes. The excess dye was then removed by centrifugation at 500×g for 5 minutes and the cells were resuspended at a concentration of 1.2×10^7 cells ml^−1 in Hank's balanced salt solution (HBSS; Gibco BRL, Product No. 14190-094).
Equal volumes of compounds (dissolved in an appropriate solvent and diluted in HBSS containing 1 mM MnCl2) and the labelled Jurkat J6 cells, were added to the VCAM-1 coated plates and adhesion was allowed to proceed for 30 minutes at 37° C. Non, or loosely adhered cells, were removed by inversion of the plate and blotted with tissue paper. Two washes with PBS and further blotting were then performed, before the addition of 2% detergent (Triton-X®; Sigma Chemicals UK, Product No. X100). Counting was undertaken in a Wallac Viktor™ Fluorimeter, where low fluorescence values were indicative of compounds which had inhibited adhesion. All samples were assayed in singlicate and the following four parameter curve fit, shown by Equation (I) was applied: [formula]
Where a is the minimum, b is the Hill slope, c is the IC50 and d is the maximum. (Maximum and minimum values are those compared to adhesion in the absence of compound and in the presence of the dipotassium salt of 2 mM EDTA; Sigma Chemicals, UK, Product No. ED2P). Data is presented as the mean pIC50 with the standard error of the mean of n experiments.

T1 sequence (P13612 34-1032): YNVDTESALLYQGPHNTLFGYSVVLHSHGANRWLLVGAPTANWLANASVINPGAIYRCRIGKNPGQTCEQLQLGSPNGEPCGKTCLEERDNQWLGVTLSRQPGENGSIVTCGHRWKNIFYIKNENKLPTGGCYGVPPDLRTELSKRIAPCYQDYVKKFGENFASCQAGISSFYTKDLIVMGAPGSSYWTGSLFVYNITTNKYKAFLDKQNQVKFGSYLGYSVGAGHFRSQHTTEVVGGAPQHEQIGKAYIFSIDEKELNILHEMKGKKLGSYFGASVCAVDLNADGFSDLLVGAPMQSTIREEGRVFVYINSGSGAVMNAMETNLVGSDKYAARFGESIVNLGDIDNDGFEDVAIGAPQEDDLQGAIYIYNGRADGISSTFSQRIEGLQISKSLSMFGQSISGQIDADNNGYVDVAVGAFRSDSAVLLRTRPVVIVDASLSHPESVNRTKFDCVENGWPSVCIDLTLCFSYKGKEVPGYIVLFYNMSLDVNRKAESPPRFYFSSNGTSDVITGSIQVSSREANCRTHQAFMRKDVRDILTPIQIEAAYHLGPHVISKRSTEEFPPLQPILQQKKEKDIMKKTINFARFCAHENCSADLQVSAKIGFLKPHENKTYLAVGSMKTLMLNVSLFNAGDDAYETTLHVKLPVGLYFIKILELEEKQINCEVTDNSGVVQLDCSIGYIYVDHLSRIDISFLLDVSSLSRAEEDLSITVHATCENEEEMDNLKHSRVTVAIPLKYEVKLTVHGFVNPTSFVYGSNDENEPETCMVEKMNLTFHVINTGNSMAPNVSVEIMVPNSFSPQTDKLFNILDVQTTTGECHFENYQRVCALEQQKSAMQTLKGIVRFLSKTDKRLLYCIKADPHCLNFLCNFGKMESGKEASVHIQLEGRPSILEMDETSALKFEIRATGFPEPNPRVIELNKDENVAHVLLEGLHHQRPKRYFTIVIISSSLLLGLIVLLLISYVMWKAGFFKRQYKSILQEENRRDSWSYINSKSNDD
T1 sequence (P05556 21-798): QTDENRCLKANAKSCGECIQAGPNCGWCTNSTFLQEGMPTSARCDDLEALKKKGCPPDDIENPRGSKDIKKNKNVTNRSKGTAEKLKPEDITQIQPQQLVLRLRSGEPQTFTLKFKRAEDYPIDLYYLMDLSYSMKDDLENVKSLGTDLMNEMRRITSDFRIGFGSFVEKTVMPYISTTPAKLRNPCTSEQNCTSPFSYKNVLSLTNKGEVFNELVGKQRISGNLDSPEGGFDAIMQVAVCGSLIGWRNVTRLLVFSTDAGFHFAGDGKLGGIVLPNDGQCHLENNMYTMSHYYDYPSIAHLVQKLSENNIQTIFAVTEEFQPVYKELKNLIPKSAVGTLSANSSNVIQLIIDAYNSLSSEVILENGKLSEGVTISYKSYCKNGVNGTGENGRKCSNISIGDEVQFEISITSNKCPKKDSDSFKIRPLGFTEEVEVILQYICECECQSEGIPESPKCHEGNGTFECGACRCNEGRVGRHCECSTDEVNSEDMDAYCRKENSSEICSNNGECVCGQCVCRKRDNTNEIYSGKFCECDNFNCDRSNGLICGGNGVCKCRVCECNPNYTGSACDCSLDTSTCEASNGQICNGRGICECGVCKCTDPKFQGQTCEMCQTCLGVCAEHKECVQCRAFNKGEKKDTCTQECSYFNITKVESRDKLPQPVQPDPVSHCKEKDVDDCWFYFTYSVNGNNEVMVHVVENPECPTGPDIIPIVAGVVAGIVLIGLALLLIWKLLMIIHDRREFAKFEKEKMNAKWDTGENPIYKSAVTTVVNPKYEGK

| IC50 | SMILES |
| --- | --- |
| 57.5 nM | CC(C)C[C@H](NC(=O)COc1ccccc1C1CCCCC1)C(=O)N[C@@H](Cc1ccc(OC(=O)N2CCC(NC(=O)Cc3ccc(Cl)cc3)CC2)cc1)C(=O)O [Example 45, (2S)-3-(4-{[(4-{[2-(4-Chlorophenyl)acetyl]amino}-1-piperidinyl)carbonyl]oxy}phenyl)-2-[((2S)-2-{[2-(2-cyclohexylphenoxy)acetyl]amino}-4-methylpentanoyl)amino]propanoic acid] |
| 43.7 nM | CC(C)C[C@H](NC(=O)COc1ccccc1C(=O)c1ccccc1)C(=O)N[C@@H](Cc1ccc(OC(=O)N2CCC(NC(=O)Cc3ccc(Cl)cc3)CC2)cc1)C(=O)O [Example 46, (2S)-2-[((2S)-2-{[2-(2-Benzoylphenoxy)acetyl]amino}-4-methylpentanoyl)amino]-3-(4-{[(4-{[2-(4-chlorophenyl)acetyl]amino}-1-piperidinyl)carbonyl]oxy}phenyl)propanoic acid] |
| 33.1 nM | CC(C)C[C@H](NC(=O)COc1ccccc1I)C(=O)N[C@@H](Cc1ccc(OC(=O)N2CCC(NC(=O)Cc3ccc(Cl)cc3)CC2)cc1)C(=O)O [Example 47, (2S)-3-(4-{[(4-{[2-(4-Chlorophenyl)acetyl]amino}-1-piperidinyl)carbonyl]oxy}phenyl)-2-[((2S)-2-{[2-(2-iodophenoxy)acetyl]amino}-4-methylpentanoyl)amino]propanoic acid] |
| 41.7 nM | CC(C)C[C@H](NC(=O)COc1ccccc1C(C)(C)C)C(=O)N[C@@H](Cc1ccc(OC(=O)N2CCC(NC(=O)Cc3ccc(Cl)cc3)CC2)cc1)C(=O)O [Example 48, (2S)-2-{[(2S)-2-({2-[2-(Tert-butyl)phenoxy]acetyl}amino)-4-methylpentanoyl]amino}-3-(4-{[(4-{[2-(4-chlorophenyl)acetyl]amino}-1-piperidinyl)carbonyl]oxy}phenyl)propanoic acid] |
| 44.7 nM | CC(C)C[C@H](NC(=O)c1cccc2c1oc1ccccc12)C(=O)N[C@@H](Cc1ccc(OC(=O)N2CCC(NC(=O)Cc3ccc(Cl)cc3)CC2)cc1)C(=O)O [Example 49, (2S)-3-(4-{[(4-{[2-(4-Chlorophenyl)acetyl]amino}-1-piperidinyl)carbonyl]oxy}phenyl)-2-({(2S)-2-[(dibenzo[b,d]furan-4-ylcarbonyl)amino]-4-methylpentanoyl}amino)propanoic acid] |
| 25.1 nM | CC(C)C[C@H](NC(=O)COc1cc2ccccc2cc1C(=O)N1CCCCC1)C(=O)N[C@@H](Cc1ccc(OC(=O)N2CCC(NC(=O)Cc3ccc(Cl)cc3)CC2)cc1)C(=O)O [Example 50, (2S)-3-(4-{[(4-{[2-(4-Chlorophenyl)acetyl]amino}-1-piperidinyl)carbonyl]oxy}phenyl)-2-({(2S)-4-methyl-2-[(2-{[3-(1-piperidinylcarbonyl)-2-naphthyl]oxy}acetyl)amino]pentanoyl}amino)propanoic acid] |
| 13.8 nM | CC(C)C[C@H](NC(=O)COc1ccccc1C(C)(C)C)C(=O)N[C@@H](Cc1ccc(OC(=O)N2CCC(NC(=O)Cc3ccccc3)CC2)cc1)C(=O)O [Example 51, (2S)-2-{[(2S)-2-({2-[2-(Tert-butyl)phenoxy]acetyl}amino)-4-methylpentanoyl]amino}-3-{4-[({4-[(2-phenylacetyl)amino]-1-piperidinyl}carbonyl)oxy]phenyl}propanoic acid] |
| 33.1 nM | CC(C)C[C@H](NC(=O)COc1ccccc1C(C)(C)C)C(=O)N[C@@H](Cc1ccc(OC(=O)N2CCC(NC(=O)CC3CCCCC3)CC2)cc1)C(=O)O [Example 52, (2S)-2-{[(2S)-2-({2-[2-(Tert-butyl)phenoxy]acetyl}amino)-4-methylpentanoyl]amino}-3-{4-[({4-[(2-cyclohexylacetyl)amino]-1-piperidinyl}carbonyl)oxy]phenyl}propanoic acid] |
| 155 nM | CC(C)C[C@H](NC(=O)COc1ccccc1C(C)(C)C)C(=O)N[C@@H](Cc1ccc(OC(=O)N2CCC(NC(=O)C(C3CCCCC3)C3CCCCC3)CC2)cc1)C(=O)O [Example 53, (2S)-2-{[(2S)-2-({2-[2-(Tert-butyl)phenoxy]acetyl}amino)-4-methylpentanoyl]amino}-3-{4-[({4-[(2,2-dicyclohexylacetyl)amino]-1-piperidinyl}carbonyl)oxy]phenyl}propanoic acid] |
| 5.62 nM | Cc1ccccc1OCC(=O)N[C@@H](CC(C)C)C(=O)N[C@@H](Cc1ccc(OC(=O)N2CCC(NC(=O)Cc3ccccc3)CC2)cc1)C(=O)O [Example 54, (2S)-2-[((2S)-4-Methyl-2-{[2-(2-methylphenoxy)acetyl]amino}pentanoyl)amino]-3-{4-[({4-[(2-phenylacetyl)amino]-1-piperidinyl}carbonyl)oxy]phenyl}propanoic acid] |
| 61.7 nM | CC(C)C[C@H](NC(=O)COc1ccccc1C1CCCCC1)C(=O)N[C@@H](Cc1ccc(OC(=O)N2CCC(NC(=O)Cc3ccccc3)CC2)cc1)C(=O)O [Example 55, (2S)-2-[((2S)-2-{[2-(2-Cyclohexylphenoxy)acetyl]amino}-4-methylpentanoyl)amino]-3-{4-[({4-[(2-phenylacetyl)amino]-1-piperidinyl}carbonyl)oxy]phenyl}propanoic acid] |
| 87.1 nM | CC(C)C[C@H](NC(=O)COc1ccccc1C1CCCCC1)C(=O)N[C@@H](Cc1ccc(OC(=O)N2CCC(NC(=O)CC3CCCCC3)CC2)cc1)C(=O)O [Example 56, (2S)-3-{4-[({4-[(2-Cyclohexylacetyl)amino]-1-piperidinyl}carbonyl)oxy]phenyl}-2-[((2S)-2-{[2-(2-cyclohexylphenoxy)acetyl]amino}-4-methylpentanoyl)amino]propanoic acid] |

System: ovalbumin sensitised guinea pigs
Assay: Inhibition of eosinophil infiltration and hyper-reactivity in the guinea pig
Assay type: in vivo
Details: Cavia porcellus, Eosinophil, inhaled or nasal, 24 h, dose 200 μg/kg body weight i.t., positive control, airway hyper-reactivity to U46619
Method: (3) Inhibition of Eosinophil Infiltration and Hyper-Reactivity in the Guinea Pig
In a method based on that described by Danahay et al., 1997, ovalbumin sensitised guinea pigs were dosed with mepyramine (30 mg kg^−1 ip) to protect against anaphylactic bronchospasm. Test compounds, dissolved in 0.9% saline, were given by the inhaled route (30 minutes breathing of an aerosol of the compound) or the intra-tracheal route, 30 minutes before and 6 hours after ovalbumin challenge (10 minutes breathing of an aerosol generated from a 0.5% solution of ovalbumin). Hyper-reactivity of the airways to the thromboxane mimetic U46619, was measured 24 hours after ovalbumin challenge in un-restrained animals using a whole body plethysmograph (Buxco Ltd., USA). The guinea pigs were then sacrificed and the lungs lavaged. Total and differential leukocyte counts were then obtained for the bronchoalveolar lavage fluid and the percentage reduction in eosinophil accumulation determined (Sanjar et al., 1992). Dexamethasone (200 μg kg^−1 i.t) was used as a positive control. Data was presented as the inhibitory effect of the specified dose expressed as a percentage of the vehicle control response.

| SMILES | inhibition in vivo at 0.2 mg/kg |
| --- | --- |
| C[C@@H]1C[C@H]2[C@@H]3CCC4=CC(=O)C=C[C@]4(C)[C@@]3(F)[C@@H](O)C[C@]2(C)[C@@]1(O)C(=O)CO [Dexamethasone, reference compound] | 80% |

Same assay, conditions: dose 200 μg/kg body weight i.t., positive control

| SMILES | % Inhibition Eosinophil Accumulation |
| --- | --- |
| C[C@@H]1C[C@H]2[C@@H]3CCC4=CC(=O)C=C[C@]4(C)[C@@]3(F)[C@@H](O)C[C@]2(C)[C@@]1(O)C(=O)CO [Dexamethasone, reference compound] | 55% |

System: not listed separately
Assay: Solubility in water
Assay type: physicochemical
Details: not given

| solubility | SMILES |
| --- | --- |
| > 250 mg/mL | Cc1ccccc1OCC(=O)N[C@@H](CC(C)C)C(=O)N[C@@H](Cc1ccc(OC(=O)N2CCC(C(N)=O)CC2)cc1)C(=O)[O-].[K+] [Example 27A, (2S)-3-[4-({[4-(Aminocarbonyl)-1-piperidinyl]carbonyl}oxy)phenyl]-2-[((2S)-4-methyl-2-{[2-(2-methylphenoxy)acetyl]amino}pentanoyl)amino]propanoic acid potassium salt] |

Reference: patent publication US6867192B1, “Compounds useful in the treatment of inflammatory diseases” (priority 1998, dated 2005)
